Test results from US11976083B2, “Inhibitors of peptidylarginine deiminases” (Gilead Sciences, Inc., priority 2020, dated 2024).

Molecular target: T1, human PAD4 (Homo sapiens, UniProt Q9UM07)
T1 construct: human PAD4 (NM_012387), A2-P663, was PCR amplified; His-SUMO (N, cleaved yes); made in house; host or cells: E. coli BL21(DE3)
Assay: In vitro PAD4 BAEE biochemical assay
Conditions: BAEE substrate 3 mM, 5 nM PAD4, 2 mM calcium chloride; geometric mean of multiple experiments
Outline: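 Ammonia produced by BAEE deimination (3 mM substrate, 2 h, 25 °C) was read as fluorescent isoindole after o-phthalaldehyde/DTT derivatization, ex 405 nm/em 535 nm. Human PAD4 at 5 nM final, 2 mM calcium, pH 7.6 MOPS; compound preincubated 30 min. IC50s, normalized to BB-Cl-Amidine and DMSO controls, were geometric-mean averaged.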

T1 sequence (Q9UM07 2-663): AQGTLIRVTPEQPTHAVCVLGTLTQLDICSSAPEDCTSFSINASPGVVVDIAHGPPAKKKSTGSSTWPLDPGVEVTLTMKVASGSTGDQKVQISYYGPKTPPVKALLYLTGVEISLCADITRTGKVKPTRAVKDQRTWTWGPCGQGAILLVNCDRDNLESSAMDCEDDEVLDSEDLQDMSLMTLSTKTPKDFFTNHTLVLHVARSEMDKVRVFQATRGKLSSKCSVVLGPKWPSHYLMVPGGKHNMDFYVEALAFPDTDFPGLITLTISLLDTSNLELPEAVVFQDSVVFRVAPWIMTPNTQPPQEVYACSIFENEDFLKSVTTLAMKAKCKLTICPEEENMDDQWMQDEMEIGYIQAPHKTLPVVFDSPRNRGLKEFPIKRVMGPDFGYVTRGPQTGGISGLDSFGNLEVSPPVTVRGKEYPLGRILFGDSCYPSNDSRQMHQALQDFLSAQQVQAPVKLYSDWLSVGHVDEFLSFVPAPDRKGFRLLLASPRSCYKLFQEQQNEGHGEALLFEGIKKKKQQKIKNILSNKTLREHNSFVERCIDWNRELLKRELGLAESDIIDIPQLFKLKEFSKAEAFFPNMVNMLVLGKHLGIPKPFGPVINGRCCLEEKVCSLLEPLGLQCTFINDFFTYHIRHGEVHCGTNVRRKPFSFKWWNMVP

SMILES | IC50
COc1cc(C(=O)N2CC[C@@H](OC)[C@@H](N)C2)cc2nc(-c3cc4ccc5nc4n3CCCCCc3ccnc(C4CC4)c3C(=O)N[C@@H]5C)n(C)c12 [Example 663, (2~{R})-17-[5-[(3~{S),4~ {R})-3-amino-4-methoxy-piperidine-1-carbonyl]-7-methoxy-1-methyl-benzimidazol-2-yl]-6-cyclopropyl-2-methyl-3,7,16,22-tetrazatetracyclo[14.5.2.0^ {5,10}.0^{19,23}] tricosa-1(22),5,7,9,17,19(23), 20-heptaen-4-one] | 71 nM
COc1cc(C(=O)N2CCC[C@@H](N)[C@H]2C)cc2nc(-c3cc4ccc5nc4n3CCCCCc3ccnc(C4CC4)c3C(=O)N[C@@H]5C)n(C)c12 [Example 664, (2~{R})-17-[5-[(2~{R},3~ {R})-3-amino-2-methyl-piperidine-1-carbonyl]-7-methoxy-1-methyl-benzimidazol-2-yl]-6-cyclopropyl-2-methyl-3,7,16,22-tetrazatetracyclo[14.5.2.0^ {5,10}.0^{19,23}] tricosa-1(22),5,7,9,17,19(23), 20-heptaen-4-one] | 51 nM
COc1cc(C(=O)N2C[C@H](N)[C@@H]3CC[C@H]2C3)cc2nc(-c3cc4ccc5nc4n3CCCCCc3cc(Cl)ncc3C(=O)N[C@@H]5C)n(C)c12 [Example 665, (2~{R})-17-[5-[(1~{S),4~{R}, 5~{R})-4-amino-2-azabicyclo[3.2.1]octane-2-carbonyl]-7-methoxy-1-methyl-benzimidazol-2-yl]-8-chloro-2-methyl-3,7,16,22-tetrazatetracyclo[14.5.2.0^ {5,10).0^{19,23}]tricosa-1(22),5(10),6,8,17,19(23),20-heptaen-4-one] | 26 nM
COc1cc(C(=O)N2C[C@H]3C[C@@H]2[C@@H]3N)cc2nc(-c3cc4ccc5nc4n3CC(F)(F)CCC[C@@H]3C[C@H]3C(=O)N[C@@H]5C)n(C)c12 [Example 666, (2~{R},5~{R},7~{R})-14-[5-[(1~{R},4~{R},5~{R})-5-amino-2-azabicyclo [2.1.1]hexane-2-carbonyl]-7-methoxy-1-methyl-benzimidazol-2-yl]-11,11-difluoro-2-methyl-3,13,19-triazatetracyclo [11.5.2.0^{5,7}.0^{16,20}] icosa-1(19),14,16(20),17-tetraen-4-one] | 86 nM
COc1cc(C(=O)N2C[C@H]3C[C@@H]2[C@@H]3N)cc2nc(-c3cc4ccc5nc4n3CCCCCCC(C)(C)C(=O)N[C@@H]5C)n(C)c12 [Example 667, (11~{R})-17-[5-[(1~{R},4~ {R},5~{R})-5-amino-2-azabicyclo[2.1.1]hexane-2-carbonyl]-7-methoxy-1-methyl-benzimidazol-2-yl]-8,8,11-trimethyl-1,10,19-triazatricyclo[10.5.2.0^ {15,18}]nonadeca-12(19), 13,15(18),16-tetraen-9-one] | 70 nM
COc1cc(C(=O)N2C[C@H](N)[C@@H]3CC[C@H]2[C@H]3F)cc2nc(-c3cc4ccc5nc4n3CC(F)(F)CCC[C@@H]3C[C@H]3C(=O)N[C@@H]5C)n(C)c12 [Example 668, (2~{R},5~{R},7~{R})-14-[5-[(1~{S},4~{R},5~ {S},8~{S})-4-amino-8-fluoro-2-azabicyclo [3.2.1]octane-2-carbonyl]-7-methoxy-1-methyl-benzimidazol-2-yl]-11,11-difluoro-2-methyl-3,13,19-triazatetracyclo [11.5.2.0^{5,7}.0^{16,20}] icosa-1(19),14,16(20), 17-tetraen-4-one] | 22 nM
C[C@H]1NC(=O)c2ccc(Cl)nc2CCCCCn2c(-c3nc4cc(C(=O)N5C[C@H](N)[C@@H]6CC[C@H]5[C@H]6F)cc(F)c4n3C3CC3)cc3ccc1nc32 [Example 669, (2~{R})-17-[5-[(1~{S}, 4~{R},5~{S},8~{S})-4-amino-8-fluoro-2-azabicyclo[3.2.1]octane-2-carbonyl]-1-cyclopropyl-7-fluoro-benzimidazol-2-yl]-8-chloro-2-methyl-3,9,16,22-tetrazatetracyclo[14.5.2.0^ {5,10).0^{19,23}]tricosa-1(22),5(10),6,8,17,19(23),20-heptaen-4-one] | 45 nM
Cc1ccc2c(n1)CCCCCn1c(-c3nc4cc(C(=O)N5C[C@H](N)[C@@H]6CC[C@H]5C6)cc(F)c4n3C3CC3)cc3ccc(nc31)[C@@H](C)NC2=O [Example 670, (2~{R})-17-[5-[(1~{S),4~{R}, 5~{R})-4-amino-2-azabicyclo[3.2.1]octane-2-carbonyl]-1-cyclopropyl-7-fluoro-benzimidazol-2-yl]-2,8-dimethyl-3,9,16,22-tetrazatetracyclo[14.5.2.0^ {5,10).0^{19,23}]tricosa-1(22),5(10),6,8,17,19(23), 20-heptaen-4-one] | 6 nM
C[C@H]1NC(=O)c2c(ccnc2C2CC2)CCCCCn2c(-c3nc4cc(C(=O)N5C[C@H](N)[C@@H]6CC[C@H]5C6)cc(F)c4n3C3CC3)cc3ccc1nc32 [Example 671, (2~{R})-17-[5-[(1~{S),4~ {R},5~{R})-4-amino-2-azabicyclo[3.2.1]octane-2-carbonyl]-1-cyclopropyl-7-fluoro-benzimidazol-2-yl]-6-cyclopropyl-2-methyl-3,7,16,22-tetrazatetracyclo [14.5.2.0^{5,10}.0^{19,23}] tricosa-1(22),5(10),6,8,17, 19(23),20-heptaen-4-one] | 20 nM
C[C@H]1NC(=O)c2cc(Cl)ncc2CCCCCn2c(-c3nc4cc(C(=O)N5C[C@H](N)[C@@H]6CC[C@H]5C6)cc(F)c4n3C3CC3)cc3ccc1nc32 [Example 672, (2~{R})-17-[5-[(1~{S},4~ {R},5~{R})-4-amino-2-azabicyclo[3.2.1]octane-2-carbonyl]-1-cyclopropyl-7-fluoro-benzimidazol-2-yl]-7-chloro-2-methyl-3,8,16,22-tetrazatetracyclo [14.5.2.0^{5,10}.0^{19,23}] tricosa-1(22),5(10),6,8,17,19 (23),20-heptaen-4-one] | 28 nM
COc1cc(C(=O)N2C[C@H](N)[C@@H]3CC[C@H]2C3)cc2nc(-c3cc4ccc5nc4n3CCCCCc3ccccc3C(=O)N[C@@H]5C)n(C3CC3)c12 [Example 673, (2~{R})-17-[5-[(1~{S},4~ {R},5~{R})-4-amino-2-azabicyclo[3.2.1]octane-2-carbonyl]-1-cyclopropyl-7-methoxy-benzimidazol-2-yl]-2-methyl-3,16,22-triazatetracyclo[14.5.2.0^ {5,10}.0^{19,23}] tricosa-1(22),5(10),6,8, 17,19(23),20-heptaen-4-one] | 27 nM
C[C@H]1NC(=O)c2cnc(C(F)F)cc2CCCCCn2c(-c3nc4cc(C(=O)N5C[C@H](N)[C@@H]6CC[C@H]5C6)cc(F)c4n3C3CC3)cc3ccc1nc32 [Example 674, (2~{R})-17-[5-[(1~{S},4~ {R},5~{R})-4-amino-2-azabicyclo[3.2.1]octane-2-carbonyl]-1-cyclopropyl-7-fluoro-benzimidazol-2-yl]-8-(difluoromethyl)-2-methyl-3,7,16,22-tetrazatetracyclo[14.5.2.0^ {5,10).0^{19,23}]tricosa-1(22),5(10),6,8,17,19(23), 20-heptaen-4-one] | 17 nM
COc1cc(C(=O)N2CC[C@@H](OC)[C@@H](N)C2)cc2nc(-c3cc4ccc5nc4n3CCCCCCNC(=O)c3ncccc3-5)n(C)c12 [Example 675, 17-[5-[(3~{S},4~{R})-3-amino-4-methoxy-piperidine-1-carbonyl]-7-methoxy-1-methyl-benzimidazol-2-yl]-6,9,16,22-tetrazatetracyclo [14.5.2.0^{2,7}.0^{19,23}] tricosa-1(22),2,4,6,17,19(23), 20-heptaen-8-one] | 559 nM
COc1cc(C(=O)N2CC[C@@H](C)[C@@H](N)[C@@H]2C)cc2nc(-c3cc4ccc5nc4n3CC(F)(F)CCC[C@@H]3C[C@H]3C(=O)N[C@@H]5C)n(C)c12 [Example 676, (2~{R},5~{R},7~{R})-14-[5-[(2~{S},3~{R},4~ {R})-3-amino-2,4-dimethyl-piperidine-1-carbonyl]-7-methoxy-1-methyl-benzimidazol-2-yl]-11,11-difluoro-2-methyl-3,13,19-triazatetracyclo[11.5.2.0^ {5,7}.0^{16,20}] icosa-1(19),14,16(20), 17-tetraen-4-one] | 83 nM
COC[C@H]1CCN(C(=O)c2cc(OC)c3c(c2)nc(-c2cc4ccc5nc4n2CCCCCCC(C)(C)C(=O)N[C@@H]5C)n3C)C[C@@H]1N [Example 677, (11~{R})-17-[5-[(3~ {R},4~{S})-3-amino-4-(methoxymethyl)piperidine-1-carbonyl]-7-methoxy-1-methyl-benzimidazol-2-yl]-8,8,11-trimethyl-1,10,19-triazatricyclo [10.5.2.0^{15,18}] nonadeca-12(19),13,15 (18),16-tetraen-9-one] | 82 nM
COc1cc(C(=O)N2C[C@H](N)[C@H](O)[C@@H](F)C2)cc2nc(-c3cc4ccc5nc4n3CC(F)(F)CCC[C@@H]3C[C@H]3C(=O)N[C@@H]5C)n(C)c12 [Example 678, (2~{R},5~{R},7~{R})-14-[5-[(3~{S},4~{S},5~ {S})-3-amino-5-fluoro-4-hydroxy-piperidine-1-carbonyl]-7-methoxy-1-methyl-benzimidazol-2-yl]-11,11-difluoro-2-methyl-3,13,19-triazatetracyclo[11.5.2.0^ {5,7}.0^{16,20}]icosa-1(19), 14,16(20),17-tetraen-4-one] | 15 nM
COc1cc(C(=O)N2CCC[C@@H](N)[C@H]2C)cc2nc(-c3cc4ccc5nc4n3CC(F)(F)CCCc3cncc(F)c3C(=O)N[C@@H]5C)n(C)c12 [Example 679, (2~{R})-17-[5-[(2~{R},3~ {R})-3-amino-2-methyl-piperidine-1-carbonyl]-7-methoxy-1-methyl-benzimidazol-2-yl]-6,14,14-trifluoro-2-methyl-3,8,16,22-tetrazatetracyclo[14.5.2.0^ {5,10).0^{19,23}] tricosa-1(22),5(10),6,8,17, 19(23),20-heptaen-4-one] | 33 nM
